{
  "source": "patent US20230263770A1",
  "about": "“THERAPY OF POST-OPERATIVE NAUSEA AND VOMITING” (ACACIA PHARMA LTD, priority 2020, published 2023)",
  "key": {"[1]": {"tested_on": "bariatric surgery patients", "test": "Study 1: complete response in bariatric surgery patients (prophylaxis and rescue treatment)", "type": "in vivo, human", "method": "(§1) The present invention is based on the results of a Phase III study of amisulpride as prophylaxis against PONV in high-risk patients, conducted by the applicant. The Phase III study results include data from two randomized, double-blind, placebo-controlled, multi-centre Phase III trials of amisulpride, either as a prophylaxis, or rescue treatment for PONV.\n(§2) Amisulpride at a dose of 5 mg (prophylaxis) or 10 mg (rescue treatment) or matching placebo was given once by slow IV administration, over about 2 minutes.\n(§3) The primary efficacy variable was the absence or presence of PONV during the 24-hour post-operative period, where PONV was defined as the occurrence of one or more emetic episodes (vomiting and/or retching) or the receipt of one or more doses of rescue anti-emetic medication in the 24 hours after wound closure (prophylaxis study) or dosing (treatment study). Absence of PONV by this definition was termed “Complete Response” (CR). A number of secondary variables were evaluated including the occurrence of emesis (vomiting and/or retching)."}, "[2]": {"tested_on": "patients having a high BMI (≥30)", "test": "Study 1: rescue treatment of PONV in patients with a high BMI", "type": "in vivo, human", "settings": "for CR (PONV), rescue treatment: 10 mg", "method": "(§4) A randomised, double-blind, placebo-controlled study of amisulpride for IV injection as treatment against post-operative nausea and vomiting in patients having a high BMI (≥30) was conducted. The primary aim of the study was to compare the efficacy of 5 mg and 10 mg amisulpride to placebo as treatment or prevention of PONV, in patients with a high BMI.\n(§5) The study was performed in adult patients (≥18 years) having a BMI ≥30 who were undergoing elective ambulatory (day-case) or in-patient surgery under general inhalational anaesthesia for an expected duration of at least one hour from induction of anaesthesia to extubation.\nas §2, §3\n(§6) A comparison of the incidence of CR in the 0-2 and 0-24 hour periods after surgery between the amisulpride group and the placebo group using Pearson's X2 test with Yates's continuity correction at a one-sided significance level of 2.5%. The primary efficacy analysis population was the modified intent-to-treat (mITT) population."}, "[3]": {"tested_on": "patients undergoing bariatric surgery", "test": "Study 1: treatment-emergent adverse events in patients undergoing bariatric surgery", "type": "in vivo, human", "settings": "5 mg prophylaxis or 10 mg rescue treatment, n = 53", "method": "as §1, §2"}, "[4]": {"tested_on": "adult surgical patients at moderate-to-high risk of suffering PONV", "test": "Two Phase III placebo-controlled trials, PONV prophylaxis", "type": "in vivo, human", "settings": "5 mg, 626 evaluable patients, vs 59% placebo, p<0.01"}, "[5]": {"tested_on": "adult surgical patients at high risk of suffering PONV", "test": "Phase III trial, amisulpride in combination with a standard anti-emetic, PONV prophylaxis", "type": "in vivo, human", "settings": "5 mg in combination with a standard anti-emetic, 1147 evaluable patients; vs 53% placebo combination, p<0.001"}, "[6]": {"tested_on": "adult surgical patients at moderate-to-high risk of suffering PONV", "test": "Phase II dose-ranging trial, IV amisulpride as PONV prophylaxis", "type": "in vivo, human", "settings": "for incidence of PONV: prophylaxis", "method": "In a multi-centre, double-blind, randomised, dose-ranging Phase II trial (conducted by the applicant), amisulpride was given intravenously to adult surgical patients at moderate-to-high risk of suffering PONV (prophylaxis), at doses of 1 mg, 5 mg and 20 mg, with a fourth group receiving placebo."}, "[7]": {"tested_on": "patients with BMI ≥35", "test": "Study 1: treatment-emergent adverse events, prophylaxis in patients with BMI ≥35", "type": "in vivo, human", "method": "as §4, §5, §2"}, "[8]": {"tested_on": "patients who had not received prior prophylaxis", "test": "Clinical trial, treatment of PONV in patients without prior prophylaxis", "type": "in vivo, human", "settings": "doses of 5 mg and 10 mg; no difference between the doses", "method": "In another clinical trial conducted by the applicant, amisulpride at doses of 5 mg and 10 mg were compared with placebo for the treatment of PONV, in patients who had not received prior prophylaxis."}, "[9]": {"tested_on": "patients having a high BMI (≥30)", "test": "Study 1: prophylaxis of PONV in patients with a high BMI (complete response and secondary endpoints)", "type": "in vivo, human", "settings": "IV 5 mg + another antiemetic"}, "[10]": {"tested_on": "patients having a high BMI (≥30)", "test": "Study 1: prophylaxis of PONV in patients with a high BMI (complete response and secondary endpoints)", "type": "in vivo, human", "settings": "for CR (PONV) 0-2 hours / CR (PONV) 0-24 hours / CR (emesis) / CR (nausea) / CR (severe nausea): prophylactic therapy, 5 mg", "method": "as §4, §5, §2, §3, §6\nSecondary efficacy variables assessed by incidence (e.g., emesis) were compared between the groups using Pearson's X2 test."}, "[11]": {"settings": "compared to the (R+)-enantiomer; cited from earlier work"}, "[12]": {"settings": "5 mg prophylaxis, BMI ≥35, n = 149"}, "[13]": {"settings": "prophylaxis, IV 5 mg + another antiemetic, BMI ≥35, mITT, P 0.011"}},
  "note": "“Also recorded” adds a separate entry of the source.",
  "data": [
    {"smiles": "CCN1CCCC1CNC(=O)c1cc(S(=O)(=O)CC)c(N)cc1OC", "note": "(racemic) [Amisulpride, amisulpride]", "values": [
      {"measurement": "complete response rate (after 24 hours) compared to placebo", "setting": "[1]; bariatric surgery patients, amisulpride prophylaxis or rescue treatment", "result": "higher"},
      {"measurement": "complete response rate at 24 hours", "setting": "[1]; bariatric surgery, amisulpride prophylaxis (5 mg), vs 7.3% placebo, P=0.16", "result": 18.2, "unit": "%"},
      {"measurement": "complete response rate at 24 hours", "setting": "[1]; bariatric surgery, amisulpride rescue treatment (10 mg), vs 9.1% placebo, P=0.17", "result": 25.0, "unit": "%"},
      {"measurement": "complete response at 24 hours, patients/total", "setting": "[1]; combined prophylaxis and rescue treatment bariatric subgroup, placebo 5/63", "result": "11/53"},
      {"measurement": "complete response rate at 24 hours", "setting": "[1]; combined prophylaxis and rescue treatment bariatric subgroup, placebo 7.9%", "result": 20.8, "unit": "%"},
      {"measurement": "effectiveness for prophylaxis and rescue treatment of PONV in bariatric surgery patients vs other surgery types", "setting": "[1]; human, in vivo", "result": "as effective"},
      {"measurement": "CR (PONV), rescue treatment", "setting": "[2]; BMI ≥30, 251 patients", "result": "46.6% (251 patients)"},
      {"measurement": "CR (PONV), rescue treatment", "setting": "[2]; BMI ≥35, 149 patients", "result": "51.7% (149 patients)"},
      {"measurement": "effectiveness as rescue treatment for PONV", "setting": "[2]; dose of 10 mg, prior prophylaxis drug given, high (≥30) BMI and/or bariatric surgery patients", "result": "particularly effective"},
      {"measurement": "CR rate, rescue treatment compared to placebo", "setting": "[2]; patients with a high BMI", "result": "higher"},
      {"measurement": "Number of patients with any adverse event", "setting": "[3]", "result": 30, "unit": "n"},
      {"measurement": "Patients with any adverse event", "setting": "[3]", "result": "(57) %"},
      {"measurement": "incidence of PONV", "setting": "[4]", "result": 48, "unit": "%"},
      {"measurement": "incidence of PONV", "setting": "[5]", "result": 42, "unit": "%"},
      {"measurement": "incidence of PONV", "setting": "[6]; 1 mg intravenously, p<0.05 vs placebo (69%)", "result": 48, "unit": "%"},
      {"measurement": "incidence of PONV", "setting": "[6]; 5 mg intravenously, p<0.01 vs placebo (69%)", "result": 40, "unit": "%"},
      {"measurement": "incidence of PONV compared to placebo", "setting": "[6]; all amisulpride groups (1 mg, 5 mg and 20 mg)", "result": "lower"},
      {"measurement": "Number of patients with any adverse event", "setting": "[7]; [12]", "result": 79, "unit": "n"},
      {"measurement": "Patients with any adverse event", "setting": "[7]; [12]", "result": "(53) %"},
      {"measurement": "incidence of any treatment-emergent adverse events (TEAE) or serious adverse events (SAE), amisulpride vs placebo", "setting": "[7]; high BMI and bariatric subgroups", "result": "No material difference"},
      {"measurement": "treating PONV compared to placebo", "setting": "[8]", "result": "significantly better than placebo"},
      {"measurement": "CR (0-24 h)", "setting": "[9]; BMI <35, mITT, P 0.002", "result": "(61.2%)"},
      {"measurement": "CR (0-24 h), patients with CR/total", "setting": "[9]; BMI <35, mITT, P 0.002", "result": "259/423"},
      {"measurement": "CR (0-24 h)", "setting": "[9]; all patients, mITT, P <0.001", "result": "(57.7%)"},
      {"measurement": "CR (0-24 h), patients with CR/total", "setting": "[9]; all patients, mITT, P <0.001", "result": "330/572"},
      {"measurement": "CR (0-24 h), patients with CR/total", "setting": "[10]; 5 mg prophylaxis, BMI ≥35, 42/129 for placebo", "result": "71/149"},
      {"measurement": "secondary endpoints compared to placebo (FIGS. 1 and 2)", "setting": "[10]; 5 mg prophylaxis, BMI ≥35, all secondary endpoints with the exception of emesis", "result": "statistically significantly superior to placebo"},
      {"measurement": "preventing PONV at 24 hours compared to placebo", "setting": "[10]; 5 mg prophylaxis, overall study population and particularly BMI ≥35 subgroup", "result": "more effective than placebo"},
      {"measurement": "absolute risk reduction, amisulpride versus placebo", "setting": "[10]; patients with BMI ≥35 (printed 235), 0-24 h", "result": 15.10},
      {"measurement": "absolute risk reduction, amisulpride versus placebo", "setting": "[10]; patients with a BMI <35, 0-24 h", "result": 10.50},
      {"measurement": "relative risk reduction (RRR) of the incidence of PONV", "setting": "[10]; patients with a high BMI (printed 230), compared to RRR of the overall risk of PONV", "result": "much higher than expected"},
      {"measurement": "CR (PONV) 0-2 hours", "setting": "[10]; BMI ≥30, 251 patients", "result": 53.0, "unit": "%"},
      {"measurement": "CR (PONV) 0-24 hours", "setting": "[10]; BMI ≥30, 251 patients", "result": 53.0, "unit": "%"},
      {"measurement": "CR (emesis)", "setting": "[10]; BMI ≥30, 251 patients", "result": "12.6% (251 patients)"},
      {"measurement": "CR (nausea)", "setting": "[10]; BMI ≥30, 251 patients", "result": "55.0% (251 patients)"},
      {"measurement": "CR (severe nausea)", "setting": "[10]; BMI ≥30, 251 patients", "result": "41.8% (251 patients)"},
      {"measurement": "CR (emesis)", "setting": "[10]; BMI ≥35, 149 patients", "result": "14.8% (149 patients)"},
      {"measurement": "CR (nausea)", "setting": "[10]; BMI ≥35, 149 patients", "result": "58.4% (149 patients)"},
      {"measurement": "CR (severe nausea)", "setting": "[10]; BMI ≥35, 149 patients", "result": "45.0% (149 patients)"},
      {"measurement": "CR (PONV) 0-2 hours", "setting": "[10]; BMI ≥35, 149 patients, p = 0.002", "result": "73.8% (p = 0.002)"},
      {"measurement": "CR (PONV) 0-24 hours", "setting": "[10]; BMI ≥35, 149 patients, p = 0.01", "result": "47.7% (p = 0.01)"},
      {"measurement": "CR (0-24 h)", "setting": "[10]; [13]", "result": "(47.7%)"},
      {"measurement": "CR (0-24 h), patients with CR/total", "setting": "[10]; [13]", "result": "71/149"},
      {"measurement": "preventing PONV compared to placebo", "setting": "[10]; prophylaxis, patients with a high BMI", "result": "more effective than placebo"},
      {"measurement": "safety and efficacy for prevention or treatment of PONV (overall conclusion)", "setting": "[10]; single IV dose, patients with a high BMI and bariatric surgery population, post-hoc analysis", "result": "safe and effective; also recorded: safe and efficacious"}
    ]},
    {"smiles": "CCN1CCCC1CNC(=O)c1cc(S(=O)(=O)CC)c(N)cc1OC", "note": "(single isomer, unassigned) [(S−)-enantiomer, (S−)-amisulpride]", "values": [
      {"measurement": "share of the therapeutic activity of amisulpride", "setting": "[11]", "result": "almost all of the therapeutic activity"}
    ]}
  ]
}
